The test has as its system Leukemia K562 cell. Description: Leukemia K562 cell proliferation/viability assay (CellTiterGlo, 48 hours). It is filed as cell-based. Also on record: unit not given here. To be noted: K562 cells. The method, then:
C-Abl is encoded by the ABL1 gene (NCBI Gene ID NO. 25). […] Assays for determining if a small molecule inhibits c-Abl activity are known. Non-limiting examples include cell proliferation assays using cancer cells that are BCR-Abl positive and depend on BCR-Abl for growth, such as the leukemia cell line K562. […] In some embodiments described herein, compounds are tested for ability to reduce K562 cell proliferation in an HTS adapted assay which measures cell viability using the reagent CellTiterGlo after 48 hours treatment.
In turn, `CN(C)S(=O)(=O)c1cccc(-c2ccc3c(c2)C(=O)Nc2cc(OC(F)(F)F)ccc2O3)c1` [NCGC00373057, N,N-Dimethyl-3-(11-oxo-8-(trifluoromethoxy)-10. I1-dihydrodibenzo[b,f][1,4]oxazepin-2-yl)benzenesulfonamide] showed an Efficacy of −85.1. Next, `CN1CCN(c2cc(-c3ccc4c(c3)C(=O)Nc3cc(OC(F)(F)F)ccc3O4)ccn2)CC1` [NCGC00373063, 2-(2-(4-Methylpiperazin-1-yl)pyridin-4-yl)-8-(trifluoromethoxy)dibenzo[b,f][1,4]oxazepin-11(10H)-one]: −107.9; `N#CCCn1cc(-c2ccc3c(c2)C(=O)Nc2cc(OC(F)(F)F)ccc2O3)cn1` [NCGC00387293, 3-(4-(11-Oxo-8-(trifluoromethoxy)-10,11-dihydrodibenzo[b,f][1,4]oxazepin-2-yl)-1H-pyrazol-1-yl)propanenitrile]: −84.4. Consider `O=C1Nc2cc(OCC(F)(F)F)ccc2Oc2ccc(-c3ccnc(N4CCOCC4)c3)cc21` [NCGC00481504, 2-(2-Morpholinopyridin-4-yl)-8-(2,2,2-trifluoroethoxy)dibenzo[b,f][1,4]oxazepin-11(10H)-one], for which the Efficacy is on record as −85.1.

`O=C(NCCO)c1cccc(-c2ccc3c(c2)C(=O)Nc2cc(OC(F)(F)F)ccc2O3)c1` [NCGC00356688, N-(2-Hydroxyethyl)-3-(11-oxo-8-(trifluoromethoxy)-10H-dihydrodibenzo[b,f][1,4]oxazepin-2-yl)benzamide] displayed an Efficacy of −89.8. As for `NS(=O)(=O)c1cccc(-c2ccc3c(c2)C(=O)Nc2cc(OC(F)(F)F)ccc2O3)c1` [NCGC00371364, 3-(11-Oxo-8-(trifluoromethoxy)-10,11-dihydrodibenzo[b,f][1,4]oxazepin-2-yl)benzenesulfonamide], the Efficacy is recorded as −94.9. Molecule `O=C1Nc2cc(OC(F)(F)F)ccc2[S+]([O-])c2ccc(-c3ccnc(N4CCOCC4)c3)cc21` (stereo not drawn) [NCGC00482446, 2-(2-Morpholinopyridin-4-yl)-8-(trifluoromethoxy)dibenzo[b,f][1,4]thiazepin-11(10H)-one 5-oxide] came in with an Efficacy of −83.3.

`O=C(NCCN1CCOCC1)c1cccc(-c2ccc3c(c2)C(=O)Nc2cc(OC(F)(F)F)ccc2N3)c1` [NCGC00355557, N-(2-Morpholinoethyl)-3-(11-oxo-8-(trifluoromethoxy)-10,11-dihydro-5H-dibenzo[b,e][1,4]diazepin-2-yl)benzamide] gave an Efficacy of −91.1. To `NC(=O)c1cccc(-c2ccc3c(c2)C(=O)Nc2cc(OC(F)(F)F)ccc2N3)c1` [NCGC00354777, 3-(11-Oxo-8-(trifluoromethoxy)-10,11-dihydro-5H-dibenzo[b,e][1,4]diazepin-2-yl)benzamide] belongs −95.9; to `O=C1Nc2cc(OC(F)(F)F)ccc2Oc2ccc(-c3ccnc4[nH]ccc34)cc21` [NCGC00373059, 2-(1H-Pyrrolo[2,3-b]pyridin-4-yl)-8-(trifluoromethoxy)dibenzo[b,f][1.4]oxazepin-11(10H)-one], −52.9; to `O=C1Nc2cc(OC(F)(F)F)ccc2Nc2ccc(-c3cccc(C(=O)N4CCNCC4)c3)cc21` [NCGC00355569, 2-(3-(Piperazine-1-carbonyl)phenyl)-8-(trifluoromethoxy)-5,10-dihydro-11H-dibenzo[b,e][1,4]diazepin-11-one], −97.3.

Regarding `O=C1Nc2cc(OC(F)(F)F)ccc2Oc2ccc(-c3cnn(CCO)c3)cc21` [NCGC00387403, 2-(1-(2-Hydroxyethyl)-1H-pyrazol-4-yl)-8-(trifluoromethoxy)dibenzo[b,f][1,4]oxazepin-11(10H)-one], the Efficacy is −37.6.

Consider `O=C1Nc2cc(OC(F)(F)F)ccc2Oc2ccc(-c3cnn(C4COC4)c3)cc21` [NCGC00387298, 2-(1-(Oxetan-3-yl)-1H-pyrazol-4-yl)-8-(trifluoromethoxy)dibenzo[b,f][1,4]oxazepin-11(10H)-one], for which the Efficacy is recorded as −93.8.

In the case of `O=C1Nc2cc(OC(F)(F)F)ccc2Sc2ccc(-c3ccnc(N4CCOCC4)c3)cc21` [NCGC00482456, 2-(2-Morpholinopyridin-4-yl)-8-(trifluoromethoxy)dibenzo[b,f][1,4]thiazepin-11(10H)-one], the Efficacy is recorded as −85.7. `CN1C(=O)c2ccc(-c3cccc(N(C)S(C)(=O)=O)c3)cc2Oc2ccc(OC(F)(F)F)cc21` [NCGC00384267] gave an Efficacy of −48.4. `CC(=O)NCc1ccc(-c2ccc3c(c2)C(=O)Nc2cc(OC(F)(F)F)ccc2O3)s1` [NCGC00388557, N-((5-(11-Oxo-8-(trifluoromethoxy)-10,11-dihydrodibenzo[b,f][1,4]oxazepin-2-yl)thiophen-2-yl)methyl)acetamide] showed an Efficacy of −81.9. Regarding `CS(=O)(=O)Nc1ccc(-c2ccc3c(c2)C(=O)Nc2cc(OC(F)(F)F)ccc2N3)cc1` [NCGC00355552, N-(4-(11-oxo-8-(trifluoromethoxy)-10,11-dihydro-5H-dibenzo[b,e][1,4]diazepin-2-yl)phenyl)methanesulfonamide], the Efficacy is −86.3.

Take `O=C1Nc2cc(OC(F)(F)F)ccc2Oc2ccc(-c3cccc(C(=O)N4CCOCC4)c3)cc21` [NCGC00356745, 2-(3-(Morpholine-4-carbonyl)phenyl)-8-(trifluoromethoxy)dibenzo[b,f][1,4]oxazepin-11(10H)-one]: the Efficacy was −98.3.

`Nc1cc(-c2ccc3c(c2)C(=O)Nc2cc(OC(F)(F)F)ccc2O3)ccn1` [NCGC00373061, 2-(2-Aminopyridin-4-yl)-8-(trifluoromethoxy)dibenzo[b,f][1,4]oxazepin-11(10H)-one] displayed an Efficacy of −87.0. The molecule `CS(=O)(=O)Nc1cccc(-c2ccc3c(c2)C(N)=Nc2cc(OC(F)(F)F)ccc2O3)c1` [NCGC00373124, N-(3-(11-Amino-8-(trifluoromethoxy)dibenzo[b,f][1,4]oxazepin-2-yl)phenyl)methanesulfonamide] gave an Efficacy of −87.5.

`CC(C)(O)Cn1cc(-c2ccc3c(c2)C(=O)Nc2cc(OC(F)(F)F)ccc2O3)cn1` [NCGC00387294, 2-(1-(2-Hydroxy-2-methylpropyl)-1H-pyrazol-4-yl)-8-(trifluoromethoxy)dibenzo[b,f][1,4]oxazepin-11(10H)-one] had an Efficacy of −82.3. Molecule `CS(=O)(=O)Nc1cccc(-c2ccc3c(c2)Oc2ccc(OC(F)(F)F)cc2C(=O)N3)c1` [NCGC00384295, N-(3-(11-Oxo-2-(trifluoromethoxy)-10,11-dihydrodibenzo[b,f][1,4]oxazepin-7-yl)phenyl)methanesulfonamide] gave an Efficacy of −80.6. `CC(C)(CO)n1cc(-c2ccc3c(c2)C(=O)Nc2cc(OC(F)(F)F)ccc2O3)cn1` [NCGC00387295, 2-(1-(Hydroxy-2-methylpropan-2-yl)-1H-pyrazol-4-yl)-8-(trifluoromethoxy)dibenzo[b,f][1,4]oxazepin-11(10H)-one]: the Efficacy is on record as −87.7. The molecule `O=C1Nc2cc(OC(F)(F)F)ccc2Oc2ccc(-c3cccc(B(O)O)c3)cc21` [NCGC00415019, (3-(11-Oxo-8-(trifluoromethoxy)-10,11-dihydrodibenzo[b,j][1,4]oxazepin-2-v)phenyl)boronic acid] yielded an Efficacy of −79.0. Take `CS(=O)(=O)Nc1ccc(-c2ccc3c(c2)C(=O)Nc2cc(OC(F)(F)F)ccc2O3)cc1` [NCGC00356666, N-(4-(11-Oxo-8-(trifluoromethoxy)-10,11-dihydrodibenzo[b,f][1,4]oxazepin-2-yl)phenyl)methanesulfonamide]: the Efficacy is reported as −79.9.

`CN1C(=O)c2cc(-c3cccc(N(C)S(C)(=O)=O)c3)ccc2Oc2ccc(OC(F)(F)F)cc21` [NCGC00384286, N-Methyl-N-(3-(10-methyl-11-oxo-8-(trifluoromethoxy)-10,11-dihydrodibenzo[b,f][1,4]oxazepin-2-yl)phenyl)methanesulfonamide] had an Efficacy of −54.6.

Consider `CN(C)CCn1cc(-c2ccc3c(c2)C(=O)Nc2cc(OC(F)(F)F)ccc2O3)cn1` [NCGC00387297, 2-(1-(2-(Dimethylamino)ethyl)-1H-pyrazol-4-yl)-8-(trifluoromethoxy)dibenzo[b,f][1,4]oxazepin-11(10H)-one], for which the Efficacy is recorded as −115.7. To `O=C1Nc2cc(OC(F)(F)F)ccc2Oc2ccc(CCCB(O)O)cc21` [NCGC00390142, (3-(11-Oxo-8-(trifluoromethoxy)-10,11-dihydrodibenzo[b,f][1,4]oxazepin-2-yl)propyl)boronic acid] belongs −103.4; to `O=C1Nc2cc(OC(F)(F)F)ccc2Oc2ccc(-c3cncnc3)cc21` [NCGC00371310, 2-(Pyrimidin-5-yl)-8-(trifluoromethoxy)dibenzo[b,f][1,4]oxazepin-11(10H)-one], −15.0. As to `CN1C(=O)c2ccc(-c3cccc(NS(C)(=O)=O)c3)cc2Oc2ccc(OC(F)(F)F)cc21` [NCGC00384234], the Efficacy is given as −54.1. `O=C1Nc2cc(OC(F)(F)F)ccc2S(=O)(=O)c2ccc(-c3ccnc(N4CCOCC4)c3)cc21` [NCGC00483140, 2-(2-Morpholinopyridin-4-yl)-8-(trifluoromethoxy)dibenzo[b,f][1,4]thiazepin-11(10H)-one 5,5-dioxide] yielded an Efficacy of −87.2. `CS(=O)(=O)Nc1cccc(-c2ccc3c(c2)C(=O)Nc2cc(OC(F)(F)F)ccc2O3)c1` [NCGC00356665, N-(3-(11-Oxo-8-(trifluoromethoxy)-10,11-dihydrodibenzo[b,f][1,4]oxazepin-2-yl)phenyl)methanesulfonamide] displayed an Efficacy of −83.8.

In turn, `NC(=O)Cn1cc(-c2ccc3c(c2)C(=O)Nc2cc(OC(F)(F)F)ccc2O3)cn1` [NCGC00387404, 2-(4-(11-Oxo-8-(trifluoromethoxy)-10,11-dihydrodibenzo[b,f][1,4]oxazepin-2-yl)-11-pyrazol-1-yl)acetamide] returned an Efficacy of −8.8.

For the origin of these results see patent publication US11649218B2, “C-Abl tyrosine kinase inhibitory compound embodiments and methods of making and using the same” (The USA, as represented by the Secretary, Dept. of Health …, priority 2018, dated 2023).
